Measurements: patent US12653191B2, “Active compound combinations” (Bayer Aktiengesellschaft, priority 2020, dated 2026)
Like-named read-outs stand apart in the source and are kept apart here.

Legend:
[1] = test system: Botrytis cinerea; test: in vitro-Test with fungal microorganisms, Method A (tables B1-B14); format: cell-based; conditions: Botrytis cinerea, read-out: Efficacy
Protocol: (§1) Example: In Vitro-Test with Fungal Microorganisms
(§2) Wells of 96-well microtiter plates are filled with 10 μl of a preparation of test compound or compound combination in methanol+emulsifier alkylaryl-polyglycol-ether. Thereafter, the solvent is evaporated in a hood. At the next step, 100 μl of liquid potato dextrose medium is given into each well, that has been amended with an appropriate concentration of spores or mycelium suspension of the test fungus.
(§3) With the aid of a photometer, the extinction in all wells is measured at the wavelength of 620 nm.
(§4) The microtiter plates are incubated at 20° C. and 85% relative humidity. The inhibition of growth is determined again photometrically 3-5 days after the application. Efficacy is calculated in relation to the untreated control, 0% efficacy means fungal growth as high as in untreated control while 100% efficacy means no fungal growth is measured.
(§5) The data in tables A1 to A12, B1 to B14, C1 to C10, D1 to D8, E1 to E8, F1 to F11, G1 to G4, H1 to H4 and I1 to I5 were collected according to Method A. The data in tables A13 to A22, B15 to B18, C11 to C20, E9 to E16, F12 to F15, G5 to G15, H5 to H8, I6 to I11 and J1 to J11 were collected according to Method B.

[2] = test system: Alternaria alternate; test: in vitro-Test with fungal microorganisms, Method A (tables A1-A12); format: cell-based, Alternaria alternata; conditions: Alternaria, applied alone, read-out: Efficacy %
Protocol: as §1, §2, §3, §4, §5

[3] = test system: Diaporthe citri; test: in vitro-Test with fungal microorganisms, Method A (tables F1-F11); format: cell-based; conditions: Diaporthe citri, single active, read-out: Efficacy
Protocol: as §1, §2, §3, §4, §5

[4] = test system: Ustilago segetum var. avenae; test: in vitro-Test with fungal microorganisms, Method A (tables I1-I5); format: cell-based; conditions: alone, read-out: Efficacy %
Protocol: as §1, §2, §3, §4, §5

[5] = test system: Cercospora beticola; test: in vitro-Test with fungal microorganisms, Method A (tables C1-C10); format: cell-based; conditions: Cercospora beticola, read-out: Efficacy %
Protocol: as §1, §2, §3, §4, §5

[6] = test system: Botrytis cinerea; test: in vitro-Test with fungal microorganisms, Method B (tables B15-B18); format: cell-based
Protocol: as §1
as §2, with “30” for “10”, “200” for “100”, “growth” for “potato dextrose”, “given,” for “given into each well,”
(§6) With the aid of a photometer, the extinction in all wells is measured at the wavelength of 600 nm.
(§7) The microtiter plates are incubated for 3 to 7 days at 20° C. and 85% relative humidity. After the incubation inhibition of growth is determined photometrically. Efficacy is calculated in relation to the untreated control, 0% efficacy means fungal growth as high as in untreated control while 100% efficacy means no fungal growth is measured.
as §5

[7] = test system: Alternaria alternata; test: in vitro-Test with fungal microorganisms, Method B (tables A13-A22); format: cell-based; conditions: for inhibition of growth at 0.008 ppm / inhibition of growth at 0.04 ppm / inhibition of growth at 0.2 ppm / inhibition of growth at 1 ppm: Alternaria alternata, read-out: Efficacy
Protocol: as §1
as §2, with “30” for “10”, “200” for “100”, “growth” for “potato dextrose”, “given,” for “given into each well,”
as §6, §7, §5

[8] = test system: Colletotrichum coccodes; test: in vitro-Test with fungal microorganisms, Method B (tables J1-J11); format: cell-based; conditions: Colletotrichum coccodes, applied alone, read-out: Efficacy %
Protocol: as §1
as §2, with “30” for “10”, “200” for “100”, “growth” for “potato dextrose”, “given,” for “given into each well,”
as §6, §7, §5

[9] = test system: Fusarium culmorum; test: in vitro-Test with fungal microorganisms, Method B (tables G5-G15); format: cell-based; conditions: for inhibition of growth at 0.008 ppm / inhibition of growth at 0.04 ppm / inhibition of growth at 0.2 ppm / inhibition of growth at 1 ppm: Fusarium culmorum, alone, read-out: Efficacy
Protocol: as §1
as §2, with “30” for “10”, “200” for “100”, “growth” for “potato dextrose”, “given,” for “given into each well,”
as §6, §7, §5

[10] = test system: Cercospora beticola; test: in vitro-Test with fungal microorganisms, Method B (tables C11-C20); format: cell-based
Protocol: as §1
as §2, with “30” for “10”, “200” for “100”, “growth” for “potato dextrose”, “given,” for “given into each well,”
as §6, §7, §5

[11] = test system: Cordana musae; test: in vitro-Test with fungal microorganisms, Method B (tables E9-E16); format: cell-based; conditions: Neocordana musae, single active, read-out: Efficacy
Protocol: as §1
as §2, with “30” for “10”, “200” for “100”, “growth” for “potato dextrose”, “given,” for “given into each well,”
as §6, §7, §5

[12] = test system: Ustilago segetum var. avenae; test: in vitro-Test with fungal microorganisms, Method B (tables I6-I11); format: cell-based; conditions: alone
Protocol: as §1
as §2, with “30” for “10”, “200” for “100”, “growth” for “potato dextrose”, “given,” for “given into each well,”
as §6, §7, §5

[13] = Botrytis cinerea, 1 ppm alone, read-out: Efficacy %

Cc1ccc(CC2CON=C(c3cc(C)nnc3Oc3cccc(C4CC4)c3F)N2)c(C)c1 (racemic) [Compound I-052, rac-3-[3-(3-cyclopropyl-2-fluorophenoxy)-6-methylpyridazin-4-yl]-5-[(2,4-dimethylphenyl)methyl]-5,6-dihydro-4H-1,2,4-oxadiazine]
inhibition of growth at 0.0008 ppm ([1]; 0.0008 ppm): 0% | inhibition of growth at 0.004 ppm ([1]; 0.004 ppm): 0% | inhibition of growth at 0.02 ppm ([1]; 0.02 ppm): 0% | inhibition of growth at 0.1 ppm ([1]; 0.1 ppm): 88% | inhibition of growth at 0.0008 ppm ([2]; 0.0008 ppm): 2% | inhibition of growth at 0.004 ppm ([2]; 0.004 ppm): 0% | inhibition of growth at 0.02 ppm ([2]; 0.02 ppm): 9% | inhibition of growth at 0.1 ppm ([2]; 0.1 ppm): 72% | inhibition of growth at 0.0008 ppm ([3]; 0.0008 ppm): 0% | inhibition of growth at 0.004 ppm ([3]; 0.004 ppm): 0% | inhibition of growth at 0.02 ppm ([3]; 0.02 ppm): 100% | inhibition of growth at 0.1 ppm ([3]; 0.1 ppm): 100% | inhibition of growth at 0.0008 ppm ([4]; 0.0008 ppm): 2% | inhibition of growth at 0.004 ppm ([4]; 0.004 ppm): 3% | inhibition of growth at 0.02 ppm ([4]; 0.02 ppm): 0% | inhibition of growth at 0.1 ppm ([4]; 0.1 ppm): 0% | inhibition of growth at 0.0008 ppm ([5]; 0.0008 ppm alone): 0% | inhibition of growth at 0.004 ppm ([5]; 0.004 ppm alone): 0% | inhibition of growth at 0.02 ppm ([5]; 0.02 ppm alone): 0% | inhibition of growth at 0.1 ppm ([5]; 0.1 ppm alone): 20%

Cc1ccc(C[C@H]2CON=C(c3cc(C)nnc3Oc3cccc(C4CC4)c3F)N2)c(C)c1 [Compound I-130, (5S)-3-[3-(3-cyclopropyl-2-fluorophenoxy)-6-methylpyridazin-4-yl]-5-(2,4-dimethylbenzyl)-5,6-dihydro-4H-1,2,4-oxadiazine]
inhibition of growth at 0.008 ppm ([6]; Botrytis cinerea, 0.008 ppm alone, read-out: Efficacy %): 96% | inhibition of growth at 0.04 ppm ([6]; Botrytis cinerea, 0.04 ppm alone, read-out: Efficacy %): 100% | inhibition of growth at 0.2 ppm ([6]; Botrytis cinerea, 0.2 ppm alone, read-out: Efficacy %): 100% | inhibition of growth at 1 ppm [6, 13]: 100% | inhibition of growth at 0.008 ppm ([7]; 0.008 ppm): 25% | inhibition of growth at 0.04 ppm [7]: 100% | inhibition of growth at 0.2 ppm [7]: 100% | inhibition of growth at 1 ppm [7]: 100% | inhibition of growth at 0.008 ppm ([8]; 0.008 ppm): 94% | inhibition of growth at 0.04 ppm ([8]; 0.04 ppm): 100% | inhibition of growth at 0.2 ppm ([8]; 0.2 ppm): 100% | inhibition of growth at 1 ppm ([8]; 1 ppm): 100%

Cc1ccc(C[C@@H]2CON=C(c3cc(C)nnc3Oc3cccc(Cl)c3F)N2)c(Cl)c1 [Compound I-338, (5R)-3-[3-(3-chloro-2-fluorophenoxy)-6-methylpyridazin-4-yl]-5-(2-chloro-4-methylbenzyl)-5,6-dihydro-4H-1,2,4-oxadiazine]
inhibition of growth at 1 ppm [6, 13]: 85% | Efficacy ([7]; 0.008 ppm): 0% | inhibition of growth at 0.008 ppm ([7]; 0.008 ppm): 0% | inhibition of growth at 0.008 ppm [9]: 22% | inhibition of growth at 0.04 ppm [9]: 21% | inhibition of growth at 0.2 ppm [9]: 0% | inhibition of growth at 1 ppm [9]: 0%

Cc1ccc(C[C@H]2CON=C(c3cc(C)nnc3Oc3cccc(Cl)c3F)N2)c(Cl)c1 [Compound I-339, (5S)-3-[3-(3-chloro-2-fluoro-phenoxy)-6-methylpyridazin-4-yl]-5-(2-chloro-4-methylbenzyl)-5,6-dihydro-4H-1,2,4-oxadiazine]
inhibition of growth at 0.008 ppm ([10]; Cercospora beticola, 0.008 ppm, read-out: Efficacy %): 28% | inhibition of growth at 0.04 ppm ([10]; Cercospora beticola, 0.04 ppm, read-out: Efficacy %): 0% | inhibition of growth at 0.2 ppm ([10]; Cercospora beticola, 0.2 ppm, read-out: Efficacy %): 61% | inhibition of growth at 1 ppm ([10]; Cercospora beticola, 1 ppm, read-out: Efficacy %): 98% | inhibition of growth at 0.008 ppm ([11]; 0.008 ppm): 63% | inhibition of growth at 0.04 ppm ([11]; 0.04 ppm): 100% | inhibition of growth at 0.2 ppm ([11]; 0.2 ppm): 100% | inhibition of growth at 1 ppm ([11]; 1 ppm): 100% | inhibition of growth at 0.04 ppm ([7]; single compound): 100% | inhibition of growth at 0.2 ppm ([7]; single compound): 100% | inhibition of growth at 1 ppm ([7]; single compound): 100% | inhibition of growth at 0.008 ppm ([12]; 0.008 ppm, read-out: Efficacy %): 2% | inhibition of growth at 0.04 ppm ([12]; 0.04 ppm, read-out: Efficacy %): 0% | inhibition of growth at 0.2 ppm ([12]; 0.2 ppm, read-out: Efficacy %): 0% | inhibition of growth at 1 ppm ([12]; 1 ppm, read-out: Efficacy %): 0% | inhibition of growth at 0.008 ppm [9]: 0% | inhibition of growth at 0.04 ppm [9]: 0% | inhibition of growth at 0.2 ppm [9]: 14% | inhibition of growth at 1 ppm [9]: 99%

CS(=O)(=O)Oc1cccc(Cl)c1C1CC(c2csc(C3CCN(C(=O)Cn4nc(C(F)F)cc4C(F)F)CC3)n2)=NO1 (stereo not shown) [fluoxapiprolin]
Efficacy % ([6]; 0.8 ppm, alone): 0% | Efficacy % ([6]; 4 ppm alone): 6% | Efficacy % ([6]; 20 ppm alone): 5% | Efficacy % ([10]; 20 ppm): 0% | Efficacy ([7]; 4 ppm): 0% | Efficacy ([7]; 20 ppm): 1% | Efficacy ([7]; single compound, 0.8 ppm): 0%

N#Cc1ccc(Oc2ccc(C(F)(F)C(O)(Cn3[nH]cnc3=S)c3ccc(F)cc3F)nc2)cc1 (stereo not shown) [fluoxytioconazole]
Efficacy % ([6]; 0.008 ppm alone): 0% | Efficacy % ([6]; 0.2 ppm alone): 0% | Efficacy % ([6]; 1 ppm alone): 13% | Efficacy ([7]; single compound, 0.008 ppm): 5% | Efficacy % ([12]; 0.008 ppm): 8% | Efficacy % ([12]; 0.04 ppm): 35% | Efficacy % ([12]; 0.2 ppm): 100% | Efficacy ([9]; 0.008 ppm alone): 12% | Efficacy ([9]; 1 ppm alone): 27%

CCO[PH](=O)O [fosetyl-al]
Efficacy % ([6]; 4 ppm alone): 2% | Efficacy % ([6]; 100 ppm alone): 0%
